In the CheMixHub viscosity set:
± gives the uncertainty stated by the source.

Assay: xn = mol fraction of the nth substance listed

COCCOCCOCCOC + COC(C)=O
viscosity [mPa·s], 101.3 kPa
Settings	298.15 K	308.15 K	318.15 K
x1 = 0.022	0.398 ± 0.006	0.352 ± 0.006	0.33 ± 0.006
x1 = 0.0473	0.424 ± 0.007	0.378 ± 0.006	0.352 ± 0.006
x1 = 0.0717	0.455 ± 0.007	0.404 ± 0.007	0.373 ± 0.006
x1 = 0.1255	0.527 ± 0.008	0.465 ± 0.007	0.425 ± 0.007
x1 = 0.1838	0.61 ± 0.009	0.534 ± 0.008	0.478 ± 0.007
x1 = 0.2145	0.649 ± 0.009	0.561 ± 0.008	0.512 ± 0.008
x1 = 0.236	0.676 ± 0.009	0.58 ± 0.008	0.528 ± 0.008
x1 = 0.2557	0.709 ± 0.01	0.616 ± 0.009	0.549 ± 0.008
x1 = 0.3143	0.802 ± 0.011	0.687 ± 0.01	0.611 ± 0.009
x1 = 0.4027	0.943 ± 0.013	0.802 ± 0.011	0.699 ± 0.01
x1 = 0.4806	1.07 ± 0.014	0.905 ± 0.012	0.783 ± 0.011
x1 = 0.5743	1.234 ± 0.016	1.031 ± 0.014	0.883 ± 0.012
x1 = 0.6289	1.326 ± 0.017	1.1 ± 0.014	0.942 ± 0.013
x1 = 0.6511	1.367 ± 0.018	1.13 ± 0.015	0.964 ± 0.013
x1 = 0.7138	1.474 ± 0.019	1.215 ± 0.016	1.031 ± 0.014
x1 = 0.7667	1.566 ± 0.02	1.286 ± 0.017	1.086 ± 0.014
x1 = 0.7792	1.593 ± 0.02	1.308 ± 0.017	1.1 ± 0.014
x1 = 0.8702	1.743 ± 0.022	1.426 ± 0.018	1.195 ± 0.016
x1 = 0.9014	1.805 ± 0.023	1.472 ± 0.019	1.225 ± 0.016
x1 = 0.9571	1.891 ± 0.024	1.548 ± 0.02	1.278 ± 0.017
x2 = 0.0137	1.936 ± 0.024	1.584 ± 0.02	1.306 ± 0.017

Nc1ccccc1 + COCCO
303.15 K, 101 kPa
Settings	viscosity [mPa·s]
x1 = 0.0881	2.156 ± 0.04
x1 = 0.1786	2.351 ± 0.043
x1 = 0.2716	2.555 ± 0.047
x1 = 0.3671	2.757 ± 0.05
x1 = 0.4652	2.955 ± 0.054
x1 = 0.5661	3.129 ± 0.057
x1 = 0.67	3.284 ± 0.06
x1 = 0.7768	3.437 ± 0.062
x1 = 0.8867	3.591 ± 0.065

ClCc1ccccc1 + COCCOC
298.15 K, 101 kPa
Settings	viscosity [mPa·s]
x2 = 0.135	1.176 ± 0.029
x2 = 0.2599	1.026 ± 0.025
x2 = 0.3758	0.908 ± 0.023
x2 = 0.4836	0.807 ± 0.021
x2 = 0.5841	0.716 ± 0.019
x2 = 0.6781	0.635 ± 0.017
x2 = 0.7662	0.564 ± 0.015
x2 = 0.8489	0.506 ± 0.014
x2 = 0.9267	0.453 ± 0.013

ClCc1ccccc1 + COc1ccccc1
303.15 K, 101 kPa
Settings	viscosity [mPa·s]
x2 = 0.1045	1.245 ± 0.011
x2 = 0.1911	1.362 ± 0.013
x2 = 0.304	1.438 ± 0.013
x2 = 0.4094	1.466 ± 0.013
x2 = 0.5182	1.45 ± 0.013
x2 = 0.6162	1.394 ± 0.013
x2 = 0.7196	1.3 ± 0.012
x2 = 0.8053	1.192 ± 0.011
x2 = 0.9137	1.061 ± 0.0099

CC(C)(C)O + CS(C)=O
viscosity [mPa·s], 101.3 kPa
Settings	x2 = 0.095	x2 = 0.1916	x2 = 0.289	x2 = 0.3874	x2 = 0.5132	x2 = 0.5873	x2 = 0.6888	x2 = 0.7916	x2 = 0.8951
298.15 K	3.564 ± 0.24	2.968 ± 0.2	2.53 ± 0.17	2.269 ± 0.15	2.07 ± 0.14	2.005 ± 0.14	1.917 ± 0.13	1.902 ± 0.13	1.971 ± 0.14
303.15 K	2.644 ± 0.18	2.111 ± 0.14	1.808 ± 0.13	1.608 ± 0.11	1.479 ± 0.11	1.459 ± 0.1	1.531 ± 0.11	1.568 ± 0.11	1.719 ± 0.12

CNC + CS(C)=O
303.15 K, 101 kPa
Settings	viscosity [mPa·s]
x2 = 0.061	2.067 ± 0.05
x2 = 0.1207	2.133 ± 0.049
x2 = 0.2361	2.207 ± 0.045
x2 = 0.4518	2.373 ± 0.038
x2 = 0.6496	2.207 ± 0.026
x2 = 0.8318	1.939 ± 0.017

Nc1ccccc1 + CS(C)=O
viscosity [mPa·s], 101 kPa
Settings	298.15 K	302.4 K	308.15 K	318.15 K
x2 = 0.0786	–	5.806	–	–
x2 = 0.1	3.83 ± 0.039	–	2.841 ± 0.03	2.194 ± 0.023
x2 = 0.2	3.94 ± 0.04	–	2.925 ± 0.031	2.259 ± 0.024
x2 = 0.2281	–	3.998	–	–
x2 = 0.3	3.99 ± 0.04	–	2.98 ± 0.031	2.3 ± 0.025
x2 = 0.4	3.938 ± 0.039	–	2.958 ± 0.031	2.294 ± 0.025
x2 = 0.4344	–	4.788	–	–
x2 = 0.5	3.756 ± 0.037	–	2.839 ± 0.029	2.232 ± 0.024
x2 = 0.5614	–	5.863	–	–
x2 = 0.6	3.445 ± 0.034	–	2.644 ± 0.027	2.106 ± 0.022
x2 = 0.6809	–	6.538	–	–
x2 = 0.7	3.055 ± 0.03	–	2.397 ± 0.024	1.938 ± 0.02
x2 = 0.8	2.664 ± 0.026	–	2.134 ± 0.021	1.746 ± 0.018
x2 = 0.8473	–	6.37	–	–
x2 = 0.9	2.313 ± 0.022	–	1.886 ± 0.019	1.529 ± 0.015

C[C@@H]1CC[C@@H]2C[C@H]1C2(C)C + C[C@H]1CC[C@@H]2C[C@H]1C2(C)C
100 kPa, x2 = 0.9048
Settings	viscosity [mPa·s]
293.15 K	2.24 ± 0.13
298.15 K	2.023 ± 0.13
303.15 K	1.838 ± 0.13
308.15 K	1.679 ± 0.13
313.15 K	1.538 ± 0.13
318.15 K	1.415 ± 0.13
323.15 K	1.308 ± 0.13

CCCBr + Cc1cc(C)cc(C)c1
308.15 K, 101 kPa
Settings	viscosity [mPa·s]
x2 = 0.0819	0.4452 ± 0.0039
x2 = 0.1828	0.4586 ± 0.004
x2 = 0.298	0.4744 ± 0.0041
x2 = 0.4146	0.4872 ± 0.0042
x2 = 0.5062	0.4995 ± 0.0043
x2 = 0.5971	0.5145 ± 0.0044
x2 = 0.7035	0.5257 ± 0.0045
x2 = 0.8027	0.541 ± 0.0046
x2 = 0.8945	0.5538 ± 0.0047

CCCBr + Cc1ccc(C)cc1
308.15 K, 101 kPa
Settings	viscosity [mPa·s]
x2 = 0.1032	0.4446 ± 0.0039
x2 = 0.2012	0.4528 ± 0.0039
x2 = 0.3051	0.4596 ± 0.004
x2 = 0.4051	0.469 ± 0.0041
x2 = 0.503	0.477 ± 0.0041
x2 = 0.6038	0.4865 ± 0.0042
x2 = 0.7055	0.4971 ± 0.0043
x2 = 0.8019	0.5027 ± 0.0043
x2 = 0.8965	0.5124 ± 0.0044
